Results published in US20260199284A1, “SPECIFIC VASH COMPOUNDS (SVC) INHIBITORS FOR HEART DISEASES” (MT ACT, priority 2023, published 2026).
“Also recorded” adds a separate entry of the source.

Key:
[1] = test system: cardiomyocytes of obese ZSF1 rats; assay: Unloaded shortening contractility of HFpEF myocytes; format: cell-based, rat; settings: 30-weeks aged obese ZSF1 rats, 2-hours treatment
Experimental: FIG. 16: Improved contraction and relaxation kinetics of HFpEF myocytes during unloaded shortening upon VASH inhibition or TTL overexpression in primary cardiomyocytes isolated from WKY, ZSF1-Lean, or ZSF1 Obese rats. A) Contraction amplitude, B) contraction time, and C) relaxation time in isolated rat cardiomyocytes. n=~90 myocytes per group from N=3 ZSF1 Lean or Obese rats; n=60 myocytes from N=2 WKY rats. Two-way ANOVA with factors of genotype and treatment.
Contractility was measured in a custom-fabricated cell chamber (IonOptix) mounted on an LSM Zeiss 880 inverted confocal microscope using either a 40 or 63× oil 1.4 numerical aperture objective and transmitted light camera (IonOptix MyoCam-S). Experiments were conducted at room temperature and field stimulation was provided at 1.0 Hz with a cell stimulator (MyoPacer, IonOptix). After 10-30 seconds of pacing to achieve steady state, five traces were recorded and analyzed. Sarcomere length was measured optically by Fourier transform analysis (IonWizard, IonOptix).

[2] = molecular target: recombinant human VASH1 (hVASH1) and SVBP complex (Homo sapiens, UniProt Q7L8A9); assay: In vitro detyrosination assay (ELISA-based) with recombinant human VASH1/SVBP; format: biochemical; settings: for inhibition of detyrosinase activity of recombinant human VASH1: recombinant enzyme, dose-response
Sequence of recombinant human VASH1 (hVASH1) and SVBP complex (Q7L8A9 whole entry): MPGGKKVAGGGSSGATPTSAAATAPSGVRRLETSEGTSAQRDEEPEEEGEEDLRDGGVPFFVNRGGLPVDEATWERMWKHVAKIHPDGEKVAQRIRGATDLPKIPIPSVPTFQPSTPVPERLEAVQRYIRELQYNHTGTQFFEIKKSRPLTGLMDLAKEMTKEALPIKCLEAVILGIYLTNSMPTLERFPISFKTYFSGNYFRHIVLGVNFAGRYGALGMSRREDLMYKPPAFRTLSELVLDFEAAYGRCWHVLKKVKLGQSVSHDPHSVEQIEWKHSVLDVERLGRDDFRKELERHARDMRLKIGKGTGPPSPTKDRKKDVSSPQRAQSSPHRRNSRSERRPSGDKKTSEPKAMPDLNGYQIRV
Sequence of recombinant human VASH1 (hVASH1) and SVBP complex (Q8N300 whole entry partner): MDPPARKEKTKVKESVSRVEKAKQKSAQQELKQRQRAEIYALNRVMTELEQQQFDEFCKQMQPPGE
Experimental: FIG. 3: In vitro detyrosination assays using recombinant human VASH1 (hVASH1) and SVBP complex. ELISA-based method to measure detyrosinase activity. Dose-response allows for accurate determination of the inhibition of the compounds on the target.
We undertook an extensive analysis of the human proteome and sought to identify human proteins that encoded a -EEY sequence at the very C-terminal. […] Following 2 hours exposure of the human cells to the SVC_01 compound, we fixed and analysed by specific immunofluorescence the labelling of detyrosinated tubulin but also that of another posttranslational modification termed acetylation (FIG. 4).

[3] = test system: human adult cardiomyocytes; assay: mRNA expression of detyrosination-tyrosination cycle genes in human adult cardiomyocytes; format: cell-based; settings: vs vehicle
Experimental: FIG. 34: human adult cardiomyocytes are treated with vehicle or SVC-01 and collected for analysis of mRNA expression of genes involved in the detyrosination-tyrosination cycle.
Specificity of SVC-01 was assayed using both human VASH1 and VASH2 recombinant enzymes. […] Finally, to ensure that regulation of other genes involved in the detyrosination-tyrosination cycle is not affected, we analysed gene expression of all relevant and associated genes following treatment with SVC-02 in adult human cardiomyocytes. We found no alteration of VASH1, VASH2, MATCAP, TTL or SVBP gene expression between vehicle control and SVC-02 treated cells (FIG. 34).

[4] = test system: tubulin detyrosination in human cells; assay: Immunofluorescent (high content screening) detection of tubulin detyrosination in human cells; format: cell-based
Experimental: FIG. 4: Immuofluorescent staining of wild type human cells and VASH double knock-outs.
FIG. 5: Immunofluorescent method to detect levels of tubulin detyrosination in human cells. Dose dependent reduction of tubulin detyrosination in human cells is observed after 2 hours treatment with all SVCs. In cellulo IC50 measure for SVC_03=10 nM.
FIG. 30: Immunofluorescent method to detect levels of tubulin detyrosination in human cells. Dose dependent reduction of tubulin detyrosination in human cells is observed after 2 hours treatment with all SVCs.
Since to date no small molecule has been designed to inhibit the enzyme VASH that is responsible for tubulin detyrosination, we engineered various compounds based on the natural substrate of the enzyme. We undertook an extensive analysis of the human proteome and sought to identify human proteins that encoded a -EEY sequence at the very C-terminal. Only 3 proteins matched the criteria including alpha-tubulin. Therefore, we developed 5 compounds that all share a tyrosine in the structure that is essential for the specificity (FIG. 2). […] Using computer-aided drug discovery and iterative cycles of medicinal chemistry work-up followed by ELISA (in vitro) and HCS (in cellulo) testing, we gathered a SAR database containing new chemical entities. The potency and selectivity of these compound is considered within pharmaceutical standards for further development. […] Next, using a human cell-line we assayed the activity of the compound SVC_01 in a cellular system that further gives indication on penetration and cellular efficacy. Following 2 hours exposure of the human cells to the SVC_01 compound, we fixed and analysed by specific immunofluorescence the labelling of detyrosinated tubulin but also that of another posttranslational modification termed acetylation (FIG. 4). […] Although specific, SVC_01 was used at micromolar concentration to obtain full inhibition. With the objective to improve cellular IC50 of our SVCs, we designed compounds that have better cell penetration specifications.

ZSF1 obese rats = assay: Echocardiography and invasive hemodynamics in HFpEF rats; format: in vivo, rat
Excerpt: FIG. 21: VASHi acutely improves diastolic function in HFpEF rats. A) Echocardiographic assessments of left ventricular diastolic function in ZSF1 Lean and Obese animals+/−SVC_02 treatment. Improved E/A ratio (marker of the function of the left ventricle of the heart) and mitral valve deceleration time indicate improved diastolic function and faster ventricular relaxation upon VASH inhibition in ZSF1 obese rats. B) Hemodynamic measurements of left ventricular diastolic function in ZSF1 Lean and Obese animals+/−SVC_02 treatment. Improved tau (left ventricular diastolic time constant) and dP/dTmin (rate of ventricular relaxation) indicate more rapid ventricular relaxation upon VASH inhibition in ZSF1 obese rats.
Echocardiography measurements were acquired Vevo2100 Ultrasound System (VisualSonics Inc., Toronto, Ontario, Canada) with a MS250 (13-24 MHz) transducer. Animals were sedated with inhaled isoflurane (2-3%). Parasternal long axis, parasternal short axis, apical four chamber, and apical two chamber views were acquired to assess cardiac structure and function. Diastology was assessed using pulse wave and tissue doppler imaging. The protocol used was based on recommendations from the European Society of Cardiology Working Group on Myocardial Function (Zacchigna S et al. 2021).
Animals were induced with isoflurane (5%) before being intubated and mechanically supported. Anesthesia plane was maintained using isoflurane (2-3%). A 2-French pressure-conductance catheter (Transonic Systems Inc., Ithaca, New York, USA) was calibrated using echo derived left ventricular volumes. The right common carotid artery was then dissected, and the catheter was advanced in a retrograde fashion into the left ventricle as previously described. Data were acquired using PowerLab and LabChart Pro (ADInstruments) and analyzed offline using LabChart Pro (ADInstruments).

[5] = 2 hours exposure, immunofluorescence

O=C(O)CCC[C@H](NC(=O)[C@H]1O[C@@H]1C(=O)C[C@@H](Cc1ccc(OCc2ccccc2)cc1)C(=O)O)C(=O)NCCc1ccccc1 [SVC_01]
contraction and relaxation kinetics [1]: Both contraction and relaxation kinetics were improved | better inhibition compared to Epo-Y [2]: about 100 × | inhibition of detyrosinase activity of recombinant human VASH1 [2]: efficiently inhibited; also recorded: efficient in inhibiting | expression of VASH1, VASH2, MATCAP, TTL or SVBP genes [3]: did not alter expression | level of acetylated tubulin in human cells [4, 5]: remain unaffected; also recorded: without affecting the level of acetylation | level of tubulin detyrosination in human cells [4, 5]: background signal comparable to that observed in VASH 2KO cells; also recorded: completely reduced the level of tubulin detyrosination

CCOC(=O)[C@H](Cc1ccc(OCC)cc1)NC(=O)[C@H]1O[C@@H]1C(=O)N[C@@H](Cc1ccc(OCC)cc1)C(=O)OCC [SVC_02]
E/A ratio (ZSF1 obese rats; echocardiography): Improved | mitral valve deceleration time (ZSF1 obese rats; echocardiography): Improved | dP/dTmin (rate of ventricular relaxation) (ZSF1 obese rats; hemodynamics): Improved | tau (left ventricular diastolic time constant) (ZSF1 obese rats; hemodynamics): Improved | inhibition of detyrosinase activity of recombinant human VASH1 [2]: inactive in its prodrug form; also recorded: inactive toward the therapeutic target | expression of VASH1, VASH2, MATCAP, TTL or SVBP genes [3]: no alteration | IC50 on human cells ([4]; human cells): low nanomolar
